Reference: US9696323B2, “Biomarkers for chagas disease related cardiomyopathy” (THE BOARD OF REGENTS OF THE UNIVERSITY OF TEXAS SYSTEM, priority 2013, dated 2017)

Legend:
[1] = system: T. cruzi; assay: 2D-GE plasma proteome profile (differential protein expression) of T. cruzi-infected rats treated with PBN and/or BZ; type: in vivo, rat; details: plasma, RCP/RCB/RCPB groups (chronic infection)
From the text: Certain embodiments include biomarkers identified in a previous study. Parasite persistence and oxidative damage in the heart are known to be of pathological significance during Chagas disease (Zacks et al., (2005) An Acad Bras Cienc, 77, 695-715; Gupta et al., (2009) Interdiscip Perspect Infect Dis, 2009, 190354). […] In the previous study the inventors identified 92 proteins that were differentially expressed or oxidized in chagasic plasma. Functional analysis allocated a majority of these proteins to inflammation/immunity and lipid metabolism categories, and to molecular pathways associated with cardiovascular dysfunction, e.g., myocardial infarction, hypertrophy, and fibrosis, and pulmonary embolism and hypertension. Some proteins in chagasic rats treated with PBN and/or BZ were allocated to curative pathways (immune regulation and cardiac remodeling). The 2D-GE results were validated by Western blotting. […] Increased plasma levels of GSN, MYL2, and VIM were directly correlated with the severity of cardiac disease in human chagasic patients. […] These findings have utility in diagnosing disease severity and designing suitable therapy for management of human chagasic patients.
Ingenuity Pathway Analysis (IPA) is a highly curated and comprehensive software used for the integration of proteins into networks and pathways with biological meaning (Thomas and Bonchev, (2010). Hum Genomics, 4, 353-360). Network analysis of the plasma proteome profile of chagasic rats identified four major sub-networks linked to host response to T. cruzi infection and disease development (Table V). The maximal numbers of the differentially expressed plasma proteins (19 proteins) in chagasic rats were associated with antigen presentation and inflammatory response category (Table V) and indicators of persistent inflammation, known to be of pathological significance in Chagas disease (Dhiman et al., (2009) Clinical and Vaccine Immunology, 16, 660-666; Tanowitz et al., (2009) Prog Cardiovasc Dis, 51, 524-539; Junqueira et al., (2010) Expert Rev Mol Med, 12, e29). Following functional analysis of the inflammation-associated proteins, 12 proteins (APOA1, APOE, C3, CFB, CFH, FGB, GSN, KRT10, PLG, SCG2, SERPINA1, and SERPINC1) were identified as being involved in immune cell trafficking and cell movement of leukocytes, granulocytes, phagocytes, neutrophils, and dendritic and antigen presenting cells. Some of the differentially expressed proteins in inflammation category were associated with activation (APOE, C3, CFH, GC and PLG), chemotaxis (C3, SCG2, SERPINA1, SERPINC1), and infiltration of leukocytes (APOA1, APOE, C3, PLG, KRT10) and neutrophils (C3, CFB, CFH, PLG). Up regulation of APOE, APOA1, APOH, GC and PLG in chagasic plasma was indicative of activation, binding and accumulation of macrophages in the disease state. Of the 19 differentially expressed inflammation-associated proteins, 11 proteins (APOE, C3, CFB, CFH, GSN, KRT10, SCG2, SERPINA1, SERPINC1, GC, and PLG) were carbonylated in chagasic plasma. […] Other proteins (APOE, C3, KRT3, and SCG2) were exposed to oxidation due to T. cruzi-induced, acute oxidative stress, but were normalized in expression and oxidation during the chronic phase.
Seventeen of the differentially expressed proteins in chagasic plasma, i.e., AFM, C4BPA, CACNA1D, DLGAP2, GC, KNG1, MUG1, MYLPF, MY05A, MY05B, PRPH, PZP, RAI14, and SCG2, were allotted to the lipid metabolism/molecular transport/small molecule biochemistry category (Table V) and functionally linked by IPA network analysis to lipid, fatty acid, and carbohydrate metabolism. A majority of the proteins in this category, i.e., ALB, APOA1, APOA4, APOE, APOH, C3, GC, GNAQ, MY05A, PLG, SCD2, SERPINA1, SERPINC1 and VIM, were linked to the synthesis, metabolism, transport, and modification of lipids and fatty acids, and to uptake and release or efflux of lipids, eicosanoids, and cholesterol. […]

[2] = system: T. cruzi; assay: Oxidative modification (carbonylation) of plasma proteins in chagasic rats treated with PBN and/or BZ; type: in vivo, rat; details: infected rats, plasma proteins
From the text: Certain embodiments include biomarkers identified in a previous study. Parasite persistence and oxidative damage in the heart are known to be of pathological significance during Chagas disease (Zacks et al., (2005) An Acad Bras Cienc, 77, 695-715; Gupta et al., (2009) Interdiscip Perspect Infect Dis, 2009, 190354). […] In the previous study the inventors identified 92 proteins that were differentially expressed or oxidized in chagasic plasma. Functional analysis allocated a majority of these proteins to inflammation/immunity and lipid metabolism categories, and to molecular pathways associated with cardiovascular dysfunction, e.g., myocardial infarction, hypertrophy, and fibrosis, and pulmonary embolism and hypertension. Some proteins in chagasic rats treated with PBN and/or BZ were allocated to curative pathways (immune regulation and cardiac remodeling). The 2D-GE results were validated by Western blotting. […] Increased plasma levels of GSN, MYL2, and VIM were directly correlated with the severity of cardiac disease in human chagasic patients. […] These findings have utility in diagnosing disease severity and designing suitable therapy for management of human chagasic patients. […]

[3] = system: T. cruzi; details: infected rats; BZ parasite-induced, PBN oxidative stress-induced (Wen et al. 2006, 2010); cited from earlier work

## O=C(Cn1ccnc1[N+](=O)[O-])NCc1ccccc1 [BZ]
[1]
  Spot# 34 Average Normalized Density × 100,000: 0.37
  Spot# 52, 54, 302 Average Normalized Density × 100,000: 0.60
  Spot# 94 Average Normalized Density × 100,000: 0.55
  Spot# 181 Average Normalized Density × 100,000: 7.53
  Spot# 586, 614 Average Normalized Density × 100,000: 132.20
  Spot# 672 Average Normalized Density × 100,000: 23.29
  Spot# 715 Average Normalized Density × 100,000: 30.96
  Spot# 745 Average Normalized Density × 100,000: 2.30
[2]
  preventing protein carbonylation: not effective in preventing protein carbonylation
[3]
  controlling parasite- and oxidative stress-induced pathology: beneficial effects
